Source: ChEMBL document CHEMBL1201862, “PubChem BioAssay data set” (2004)
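Cultured in 96-well plates, cells were exposed to test compound for 48 hours across five concentrations. Here, GI50 denotes the concentration required for 50% inhibition of growth.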 The source made the active and inactive calls. Cut-off read from the data, not from the text of the source: active = GI50 up to about 1.1 µM and inactive = higher.

Key:
Assay in all cases: NCI anticancer screen, dose series, 48 h
786-0 = tested on: 786-0
A498 = tested on: A498
A549 = tested on: A549
ACHN = tested on: ACHN
BT-549 = tested on: BT-549
CAKI-1 = tested on: CAKI-1
CCRF-CEM = tested on: CCRF-CEM
COLO 205 = tested on: COLO 205
DU-145 = tested on: DU-145
EKVX = tested on: EKVX
HCC 2998 = tested on: HCC 2998
HCT-116 = tested on: HCT-116
HCT-15 = tested on: HCT-15
HOP-62 = tested on: HOP-62
HT-29 = tested on: HT-29
Hs-578T = tested on: Hs-578T
IGROV-1 = tested on: IGROV-1
K562 = tested on: K562
KM12 = tested on: KM12
LOX IMVI = tested on: LOX IMVI
M14 = tested on: M14
MCF7 = tested on: MCF7
MDA-MB-231 = tested on: MDA-MB-231
MDA-MB-435 = tested on: MDA-MB-435
MDA-N = tested on: MDA-N
MOLT-4 = tested on: MOLT-4
Malme-3M = tested on: Malme-3M
NCI-H23 = tested on: NCI-H23
NCI-H460 = tested on: NCI-H460
NCI-H522 = tested on: NCI-H522
NCI/ADR-RES = tested on: NCI/ADR-RES
OVCAR-3 = tested on: OVCAR-3
OVCAR-4 = tested on: OVCAR-4
OVCAR-5 = tested on: OVCAR-5
OVCAR-8 = tested on: OVCAR-8
PC-3 = tested on: PC-3
RPMI-8226 = tested on: RPMI-8226
RXF 393 = tested on: RXF 393
SF-268 = tested on: SF-268
SF-295 = tested on: SF-295
SF-539 = tested on: SF-539
SK-MEL-28 = tested on: SK-MEL-28
SK-MEL-2 = tested on: SK-MEL-2
SK-MEL-5 = tested on: SK-MEL-5
SK-OV-3 = tested on: SK-OV-3
SN12C = tested on: SN12C
SNB-19 = tested on: SNB-19
SR = tested on: SR
SW-620 = tested on: SW-620
T47D = tested on: T47D
TK-10 = tested on: TK-10
U-251 = tested on: U-251
UACC-257 = tested on: UACC-257
UACC-62 = tested on: UACC-62
UO-31 = tested on: UO-31
HL-60 = tested on: HL-60
HOP-92 = tested on: HOP-92
NCI-H226 = tested on: NCI-H226
SNB-75 = tested on: SNB-75

SMILES: COC1=C(OC)C(=O)C(Cc2c(Cl)nc3sc(C)cn23)=C(C)C1=O
- GI50 (786-0): 19.9 µM (inactive)
- GI50 (A498): 22.9 µM (inactive)
- GI50 (A549): 17.2 µM (inactive)
- GI50 (ACHN): 17.1 µM (inactive)
- GI50 (BT-549): 18 µM (inactive)
- GI50 (CAKI-1): 24.5 µM (inactive)
- GI50 (CCRF-CEM): 3.02 µM (inactive)
- GI50 (COLO 205): 19.6 µM (inactive)
- GI50 (DU-145): 22.1 µM (inactive)
- GI50 (EKVX): 17.3 µM (inactive)
- GI50 (HCC 2998): 17.2 µM (inactive)
- GI50 (HCT-116): 23 µM (inactive)
- GI50 (HCT-15): 24.9 µM
- GI50 (HOP-62): 19.3 µM (inactive)
- GI50 (HT-29): 17.9 µM (inactive)
- GI50 (Hs-578T): 19.7 µM (inactive)
- GI50 (IGROV-1): 17.8 µM (inactive)
- GI50 (K562): 11.9 µM (inactive)
- GI50 (KM12): 13.3 µM (inactive)
- GI50 (LOX IMVI): 11.7 µM (inactive)
- GI50 (M14): 17.1 µM (inactive)
- GI50 (MCF7): 19.5 µM (inactive)
- GI50 (MDA-MB-231): 12.2 µM (inactive)
- GI50 (MDA-MB-435): 18.2 µM (inactive)
- GI50 (MDA-N): 15.8 µM (inactive)
- GI50 (MOLT-4): 1.29 µM (inactive)
- GI50 (Malme-3M): 12.2 µM (inactive)
- GI50 (NCI-H23): 13.7 µM (inactive)
- GI50 (NCI-H460): 16.7 µM (inactive)
- GI50 (NCI-H522): 13.4 µM (inactive)
- GI50 (NCI/ADR-RES): 14.6 µM (inactive)
- GI50 (OVCAR-3): 12.2 µM (inactive)
- GI50 (OVCAR-4): 7.5 µM (inactive)
- GI50 (OVCAR-5): 18.2 µM (inactive)
- GI50 (OVCAR-8): 19.1 µM (inactive)
- GI50 (PC-3): 16 µM (inactive)
- GI50 (RPMI-8226): 11.2 µM (inactive)
- GI50 (RXF 393): 20.3 µM (inactive)
- GI50 (SF-268): 16.6 µM (inactive)
- GI50 (SF-295): 16.6 µM (inactive)
- GI50 (SF-539): 19 µM (inactive)
- GI50 (SK-MEL-28): 17.9 µM (inactive)
- GI50 (SK-MEL-2): 22.3 µM (inactive)
- GI50 (SK-MEL-5): 11.2 µM (inactive)
- GI50 (SK-OV-3): 17.5 µM (inactive)
- GI50 (SN12C): 15.9 µM (inactive)
- GI50 (SNB-19): 17.9 µM (inactive)
- GI50 (SR): 16.7 µM (inactive)
- GI50 (SW-620): 21.3 µM (inactive)
- GI50 (T47D): 23.9 µM (inactive)
- GI50 (TK-10): 16.4 µM (inactive)
- GI50 (U-251): 17.9 µM (inactive)
- GI50 (UACC-257): 10.4 µM (inactive)
- GI50 (UACC-62): 11.6 µM (inactive)
- GI50 (UO-31): 17.1 µM (inactive)

SMILES: COc1ccc2nc3n(c2c1)C(c1c(F)cccc1F)SC3 (stereo not given)
- GI50 (786-0): 39.6 µM (inactive)
- GI50 (A498): 95.3 µM (inactive)
- GI50 (A549): 49 µM (inactive)
- GI50 (ACHN): 34 µM (inactive)
- GI50 (BT-549): > 100 µM (inactive)
- GI50 (CAKI-1): 94 µM (inactive)
- GI50 (CCRF-CEM): 54.1 µM (inactive)
- GI50 (COLO 205): > 100 µM (inactive)
- GI50 (DU-145): 42.3 µM (inactive)
- GI50 (EKVX): 18.9 µM (inactive)
- GI50 (HCC 2998): 78 µM (inactive)
- GI50 (HCT-116): 25.4 µM (inactive)
- GI50 (HCT-15): 43.2 µM
- GI50 (HL-60): 23.3 µM (inactive)
- GI50 (HOP-62): 61.7 µM (inactive)
- GI50 (HOP-92): 51.1 µM (inactive)
- GI50 (HT-29): 25.7 µM (inactive)
- GI50 (Hs-578T): 22.3 µM (inactive)
- GI50 (IGROV-1): 40.1 µM (inactive)
- GI50 (K562): 50.4 µM (inactive)
- GI50 (KM12): 40.2 µM (inactive)
- GI50 (LOX IMVI): 47.3 µM (inactive)
- GI50 (M14): > 100 µM (inactive)
- GI50 (MCF7): 32 µM (inactive)
- GI50 (MDA-MB-231): > 100 µM (inactive)
- GI50 (MDA-MB-435): 39.1 µM (inactive)
- GI50 (MDA-N): 61.4 µM (inactive)
- GI50 (MOLT-4): 32.4 µM (inactive)
- GI50 (NCI-H226): 19.9 µM (inactive)
- GI50 (NCI-H23): 25.9 µM (inactive)
- GI50 (NCI-H460): 35 µM (inactive)
- GI50 (NCI/ADR-RES): 19.1 µM (inactive)
- GI50 (OVCAR-3): 28.6 µM (inactive)
- GI50 (OVCAR-4): 64.4 µM (inactive)
- GI50 (OVCAR-5): > 100 µM (inactive)
- GI50 (OVCAR-8): 36.6 µM (inactive)
- GI50 (PC-3): 29.7 µM (inactive)
- GI50 (RPMI-8226): 29.9 µM (inactive)
- GI50 (RXF 393): > 100 µM (inactive)
- GI50 (SF-268): 29 µM (inactive)
- GI50 (SF-295): 38.6 µM (inactive)
- GI50 (SF-539): > 100 µM (inactive)
- GI50 (SK-MEL-28): > 100 µM (inactive)
- GI50 (SK-MEL-2): 11.1 µM (inactive)
- GI50 (SK-MEL-5): 33.2 µM (inactive)
- GI50 (SK-OV-3): > 100 µM (inactive)
- GI50 (SN12C): > 100 µM (inactive)
- GI50 (SNB-19): 20.8 µM (inactive)
- GI50 (SNB-75): 74.6 µM (inactive)
- GI50 (SR): 37.9 µM (inactive)
- GI50 (SW-620): 64.6 µM (inactive)
- GI50 (T47D): 22.3 µM (inactive)
- GI50 (TK-10): 77.4 µM (inactive)
- GI50 (U-251): 51.8 µM (inactive)
- GI50 (UACC-257): > 100 µM (inactive)
- GI50 (UACC-62): 56.9 µM (inactive)
- GI50 (UO-31): 51.9 µM (inactive)

SMILES: Cc1cccc2c(N)c3cccc(C(=O)NCC[N+](C)(C)Cc4ccc([N+](=O)[O-])s4)c3nc12
- GI50 (786-0): 1.98 µM (inactive)
- GI50 (A498): 4.65 µM (inactive)
- GI50 (A549): 0.404 µM (active)
- GI50 (ACHN): 2.69 µM (inactive)
- GI50 (BT-549): 33.5 µM (inactive)
- GI50 (CAKI-1): 2.37 µM (inactive)
- GI50 (CCRF-CEM): 1.85 µM (inactive)
- GI50 (COLO 205): 4.9 µM (inactive)
- GI50 (DU-145): 9.1 µM (inactive)
- GI50 (EKVX): 14.1 µM (inactive)
- GI50 (HCC 2998): 11.1 µM (inactive)
- GI50 (HCT-116): 3.83 µM (inactive)
- GI50 (HCT-15): 3.74 µM
- GI50 (HOP-62): 4.21 µM (inactive)
- GI50 (HOP-92): 16 µM (inactive)
- GI50 (HT-29): 4.07 µM (inactive)
- GI50 (Hs-578T): 8.51 µM (inactive)
- GI50 (IGROV-1): 2.85 µM (inactive)
- GI50 (K562): 2.88 µM (inactive)
- GI50 (KM12): 9.06 µM (inactive)
- GI50 (LOX IMVI): 3.84 µM (inactive)
- GI50 (M14): 16.5 µM (inactive)
- GI50 (MCF7): 2.23 µM (inactive)
- GI50 (MDA-MB-231): 4.42 µM (inactive)
- GI50 (MDA-MB-435): 21.9 µM (inactive)
- GI50 (MDA-N): 16 µM (inactive)
- GI50 (MOLT-4): 0.472 µM (active)
- GI50 (Malme-3M): 8.2 µM (inactive)
- GI50 (NCI-H226): 6.68 µM (inactive)
- GI50 (NCI-H23): 4.51 µM (inactive)
- GI50 (NCI-H460): 1.57 µM (inactive)
- GI50 (NCI-H522): 5.28 µM (inactive)
- GI50 (NCI/ADR-RES): 43.8 µM (inactive)
- GI50 (OVCAR-3): 9.04 µM (inactive)
- GI50 (OVCAR-4): 8.15 µM (inactive)
- GI50 (OVCAR-5): 11.9 µM (inactive)
- GI50 (OVCAR-8): 9.29 µM (inactive)
- GI50 (PC-3): 7 µM (inactive)
- GI50 (RPMI-8226): 2.62 µM (inactive)
- GI50 (RXF 393): 8.36 µM (inactive)
- GI50 (SF-268): 4.78 µM (inactive)
- GI50 (SF-295): 9.64 µM (inactive)
- GI50 (SF-539): 4.93 µM (inactive)
- GI50 (SK-MEL-28): 33 µM (inactive)
- GI50 (SK-MEL-2): 41 µM (inactive)
- GI50 (SK-MEL-5): 11.6 µM (inactive)
- GI50 (SK-OV-3): 19.6 µM (inactive)
- GI50 (SN12C): 0.424 µM (active)
- GI50 (SNB-19): 3.22 µM (inactive)
- GI50 (SNB-75): 17.2 µM (inactive)
- GI50 (SR): 1.19 µM (inactive)
- GI50 (SW-620): 5.4 µM (inactive)
- GI50 (T47D): 13.6 µM (inactive)
- GI50 (TK-10): 20.4 µM (inactive)
- GI50 (U-251): 2.91 µM (inactive)
- GI50 (UACC-257): 23.7 µM (inactive)
- GI50 (UACC-62): 16.5 µM (inactive)
- GI50 (UO-31): 11.4 µM (inactive)
